Test results reported in US8404803B2, “Cancer-associated antigen analogue peptides and uses thereof” (Chugai Seiyaku Kabushiki Kaisha, priority 2005, dated 2013).

Legend:
Assay type in all cases: cell-based, human
[1] = system: CD4-positive/IFNγ-producing T cells; test: Flow cytometry detection of CD4-positive/IFNγ-positive T cells in peptide-stimulated mononuclear cell samples; details: for CD4+ IFNγ+ number of positive samples/tested samples: mononuclear cell samples cultured 48 hours with peptide and IL-2; for CD4+ IFNγ+ number of positive samples/tested samples / CD4+ IFNγ+ number of positive samples/tested samples × 100 (%): positive sample > mean of control + 2 × SD (OVCA10-MNC group, 1.378%); for frequency of CD4-positive/IFNγ-producing T cells at the time of epitope determination: FIG. 16; for CD4-positive/IFNγ expression-positive frequencies, mean ± standard deviation: epitope determination, patient's mononuclear cell samples (FIG. 16); for frequency of CD4-positive/IFNγ-positive T cells at the time of epitope determination: FIG. 15, IL-2 and peptide added
Procedure: (§1) All operations concerning cell culture were performed aseptically. First, human peripheral mononuclear cell fractions (comprising T cells, B cells, macrophages and such; hereinafter referred to as “mononuclear cell samples”) were prepared from the blood samples by density gradient centrifugation. Next, these mononuclear cells were suspended at 1×10^5 cell/ml in complete media having the following composition: • Complete Medium: RPMI1640 culture medium (Gibco Laboratories Inc., Grand Island, N.Y.) to which 10% fetal bovine serum (Cell Culture Laboratories, Cleveland, Ohio), 0.2 mM L-glutamine, 100 U/mL penicillin, 100 μg/mL streptomycin (Gibco Laboratories Inc.), and 0.2 ng/mL recombinant human IL-2 (Dainippon Pharmaceutical Co., Tokyo, Japan) have been mixed.
(§2) Theses mononuclear cell samples were placed still in V-bottomed 96-well tissue culture plastic plates (Flow Laboratories Inc., Horsham, Pa.) in the presence and absence of peptides, and cultured for 48 hours at 37° C. in a CO2 culture apparatus (Sanyo Medica, Osaka, Japan).
(§3) A number of mouse-derived anti-human specific monoclonal antibodies with different fluorescences (hereinafter referred to as ‘monoclonal antibodies’) were used to simultaneously analyze by double-staining the CD markers CD4 and CD8, which are on the T cell membranes, and the cytokines within the T cells. As the monoclonal antibodies, products labeled with either fluorescent substance phycoerythrin (hereinafter ‘PE’) or fluorescein isothiocyanate (hereinafter ‘FITC’) were used (Miltenyi Biotec, Glandbach, Germany). For detection, a flow cytometry apparatus FACScan (Becton Dickinson) was used to measure the frequency of cells to which the monoclonal antibodies had bound. Positive cells are automatically detected by the flow cytometry apparatus.
(§4) Since positive cells cannot be identified after the cytokines have been secreted to the outside of the cells, detection was performed at a stage where the cytokines are inside the cells. Therefore, the Cytofix/Cytoperm Kit (Pharmingen, San Diego, Calif.) was used for the analysis, using methods recommended by the manufacturer and a positive control for detection recommended by the kit (Prussin C, Metcalfe D, Detection of intracytoplasmic cytokine using flow cytometry and directly conjugated anti-cytokine antibodies, J Immunol Meth. 188: 117-128, 1995). Specifically, brefeldin A (Pharmingen, San Diego, Calif.) was added at 0.7 μl/1 ml/well to stop protein production in the Golgi apparatus, and the peptide-stimulated mononuclear cell samples were treated at 37° C. for two hours. Next, the culture plates were placed on ice and the reaction was stopped by adding physiological saline at 4° C. The mononuclear cell samples were transferred into 15 ml tubes as though by washing with the physiological saline at 4° C., and were then centrifuged at 1600 rpm for ten minutes to remove the supernatant.
(§5) First, to dye CD4s on the cell surface, 10 μl of FITC-labeled mouse anti-human CD4 was added, with CD8 monoclonal antibody as a control, and this was reacted at 4° C. for 30 minutes. The cells were then separated with 0.5% bovine serum albumin/physiological saline at 4° C., then 0.5% bovine serum albumin/physiological saline at 4° C. was added thereto, and this was centrifuged at 1600 rpm for ten minutes at 4° C. to remove the supernatant.
(§6) Next, the mononuclear cell samples were fixed and their cell membranes were permeabilized. The cells were suspended in 250 μl of Cytofix/Cytoperm (Pharmingen) solution and reacted at 4° C. for 20 minutes. 10 μl of the aforementioned fluorescently labeled anti-IFNγ monoclonal antibody or anti-IL-4 monoclonal antibody was added to these mononuclear cell samples and reacted at 4° C. for 30 minutes. Then, the cells were separated by adding 0.5% bovine serum albumin/physiological saline at 4° C., and 0.5% BSA/PBS at 4° C. was further added thereto. After centrifugation at 1600 rpm for ten minutes at 4° C., the supernatant was removed. […]

[2] = system: CD8-positive/TNFα-positive T cells; test: Flow cytometry detection of CD8 and TNFα in OVCA11-stimulated T cells; details: typical example, FIG. 12; after OVCA11 stimulation (0.28% before)
Description: as §3
(§7) Since positive cells cannot be identified after the cytokines have been secreted to the outside of the cells, detection was performed at a stage where the cytokines are inside the cells. […]
(§8) T cells activated in an antigen-specific manner are known to produce tumor necrosis factor α (TNFα) when they injure target cells, such as tumor cells. Therefore, the OVCA11-stimulated T cells obtained in [Example 3] were analyzed by flow cytometry to determine whether they indeed produced TNFα, using a similar method to [Example 3] and combinations of CD4 and TNFα, and CD8 and TNFα.

[3] = system: CD4-positive/TNFα-positive T cells; test: Flow cytometry detection of CD4 and TNFα in OVCA11-stimulated T cells; details: typical example, FIG. 12; after OVCA11 stimulation (0.44% before)
Description: as §3, §7, §8

[4] = system: CD4-positive/IL-4-producing T cells; test: Flow cytometry detection of CD4-positive/IL-4-positive T cells in peptide-stimulated mononuclear cell samples; details: for CD4+ IL-4+ number of positive samples/tested samples: mononuclear cell samples cultured 48 hours with peptide and IL-2; for CD4+ IL-4+ number of positive samples/tested samples / CD4+ IL-4+ number of positive samples/tested samples × 100 (%): positive sample > mean of control + 2 × SD (OVCA10-MNC group, 1.148%); for frequency of CD4-positive/IL-4-producing T cells at the time of epitope determination: FIG. 14; for CD4-positive/IL-4-positive frequencies, mean ± standard deviation: epitope determination, patient's mononuclear cell samples (FIG. 14); for frequency of CD4-positive/IL-4-positive T cells at the time of epitope determination: FIG. 13, IL-2 and peptide added
Procedure: as §1, §2, §3, §4, §5, §6

CD4-positive T cells = test: Analysis of the CD4-positive T cell epitope (T cells positive for IL-4 or IFNγ); details: peptides with ten amino acid residues reproducing the MUC16 primary sequence
Procedure: The results were recorded as: number of double staining-positive cells/total number of counted mononuclear cells ×100=positive cell frequency (%). Furthermore, peptide antigen-specific T cell reactions were determined to be positive when the individual frequencies of positive cells in the mononuclear cell samples were the same as or greater than the mean plus two standard deviations (mean+2SD) of the negative control group, where the negative control was a mononuclear cell sample group that had been stimulated with analogue peptide (OVCA10 stimulation). In addition, each of the peptide-stimulated groups were compared by using t-tests to measure the significant difference.
Next, to determine the T cell epitope (based not on the analogues but on the original sequence), the present inventors went back to the original amino acid sequence of the 11-times repeat sequences of MUC16 from which the 30 amino acid residue sequence: […] (SEQ ID NO: 45) common to OVCA11 and OVCA12 was derived. Furthermore, the sequence was divided into lots of ten amino acid residues to prepare OVCA101 (SEQ ID NO: 4), 102 (SEQ ID NO: 5), 103 (SEQ ID NO: 6), 104 (SEQ ID NO: 7), 105 (SEQ ID NO: 8), 106 (SEQ ID NO: 9), 107 (SEQ ID NO: 2), 108 (SEQ ID NO: 3), 109, 110, 111, 112, 113, 114, 115 (SEQ ID NO: 10) (FIG. 5), and T cells positive for IL-4 or IFNγ were detected using a method similar to the above.

[5] = typical example of flow cytometry

Row | Sequence | CD4+ IFNγ+ number of positive samples/tested samples [1] | CD4+ IFNγ+ number of positive samples/tested samples × 100 (%) [1] [%] | CD4+ IL-4+ number of positive samples/tested samples [4] | CD4+ IL-4+ number of positive samples/tested samples × 100 (%) [4] [%] | frequency of CD4-positive/IFNγ-producing T cells at the time of epitope determination ([1]; peptide 15 μM) | CD4-positive/IFNγ expression-positive frequencies, mean ± standard deviation ([1]; peptide 15 μM) [%] | frequency of CD4-positive/IFNγ-positive T cells at the time of epitope determination [1, 5] [%] | recognized by CD4-positive T cells (CD4-positive T cells) | frequency of CD4-positive/IL-4-producing T cells at the time of epitope determination ([4]; peptide 15 μM) | CD4-positive/IL-4-positive frequencies, mean ± standard deviation ([4]; peptide 15 μM) [%] | frequency of CD4-positive/IL-4-positive T cells at the time of epitope determination [4, 5] [%] | further results
1 | GHTAPGPLLVPFTLNFTITN (listed as Homo sapiens) [OVCA11] | 26/33 | 78.8 | 27/32 | 84.4 | – | – | – | – | – | – | – | frequency of CD4-positive/IFNγ-producing T cells compared to groups to which OVCA10 was added ([1]; FIG. 11, peptide 15 μM, statistically significant difference): higher; frequency of CD4-positive/INFγ-positive cells, mean±standard deviation ([1]; all of the analyzed mononuclear cell samples (FIG. 11), peptide 15 μM): 3.037±2.234%; average number of IFNγ-positive cells ([1]; healthy group): 3.48%; CD4+ IFNγ+ number of positive samples/tested samples ([1]; listed as OVCA 11): 26 of the 33; average number of IFNγ-positive cells ([1]; patient group): 2.85%; CD4+ IFNγ+ number of positive samples/tested samples × 100 (%) ([1]; listed as OVCA 11): 78.8%; frequency of CD4-positive/IFNγ-positive T cells ([1]; typical example of flow cytometry, FIGS. 9 and 10, IL-2 and analogue peptide added): 3.12%; frequency of CD8-positive/TNFα-positive T cells [2]: 3.98%; frequency of CD4-positive/TNFα-positive T cells [3]: 5.76%; frequency of CD4-positive/IL-4-producing T cells compared to groups to which OVCA10 was added ([4]; FIG. 8, peptide 15 μM, statistically significant difference): higher; frequency of CD4-positive/IL-4-positive cells, mean±standard deviation ([4]; all the analyzed mononuclear cell samples (FIG. 8), peptide 15 μM): 4.314±2.805%; average number of IL-4-positive cells ([4]; healthy group): 4.89%; CD4+ IL-4+ number of positive samples/tested samples ([4]; listed as OVCA 11): 27 of the 32; average number of IL-4-positive cells ([4]; patient group): 4.12%; CD4+ IL-4+ number of positive samples/tested samples × 100 (%) ([4]; listed as OVCA 11): 84.4%; frequency of CD4-positive/IL-4-positive T cells ([4]; typical example of flow cytometry, FIGS. 6 and 7, IL-2 and analogue peptide added): 7.06%
2 | LFTLNPTITN [OVCA108] | 2/8 | 25.0 | 5/9 | 55.6 | High frequency cases could be detected | 8.963±19.939 | 1.27 | recognized by CD4-positive T cells | High frequency cases could be detected | 6.471±13.319 | 1.17 | –
3 | PFTLNFTITN (listed as Homo sapiens) [OVCA107] | 3/8 | 37.5 | 5/9 | 55.6 | High frequency cases could be detected | 7.626±12.448 | 2.10 | recognized by CD4-positive T cells | High frequency cases could be detected | 8.036±12.870 | 6.32 | –
